From patent US10898873B2, “Lecithin compositions and methods of making and using such lecithin compositions” (Archer Daniels Midland Company, priority 2015, dated 2021)

Test: Solubility of sorbitol in ethanol
Format: physicochemical
Text: Sugar alcohols can become heavily supersaturated upon cooling. When water is slowly replaced with ethanol, there can be a significant change in the maximum concentration at which the solute is completely soluble. In this example, blends of a 70% sorbitol solution and ethanol were made.

clarity of sorbitol/ethanol blend (70% sorbitol solution and ethanol, ratio 70:30): completely clear
clarity of sorbitol/ethanol blend (blends with greater than 30% ethanol): crystallization of the sorbitol
SMILES: OC[C@@H](O)[C@@H](O)[C@H](O)[C@@H](O)CO [sorbitol]
